{
  "source": "paper PMC9430770",
  "about": "(Microbiology Spectrum, 2022)",
  "molecules": {"B1": {"name": "C. albicans Eno1 (enzyme, UniProt P30575 1-440, looked up)", "chain": "MSYATKIHARYVYDSRGNPTVEVDFTTDKGLFRSIVPSGASTGVHEALELRDGDKSKWLGKGVLKAVANVNDIIAPALIKAKIDVVDQAKIDEFLLSLDGTPNKSKLGANAILGVSLAAANAAAAAQGIPLYKHIANISNAKKGKFVLPVPFQNVLNGGSHAGGALAFQEFMIAPTGVSTFSEALRIGSEVYHNLKSLTKKKYGQSAGNVGDEGGVAPDIKTPKEALDLIMDAIDKAGYKGKVGIAMDVASSEFYKDGKYDLDFKNPESDPSKWLSGPQLADLYEQLISEYPIVSIEDPFAEDDWDAWVHFFERVGDKIQIVGDDLTVTNPTRIKTAIEKKAANALLLKVNQIGTLTESIQAANDSYAAGWGVMVSHRSGETEDTFIADLSVGLRSGQIKTGAPARSERLAKLNQILRIEEELGSEAIYAGKDFQKASQL", "notes": "also called CaEno1; enolase; source: E. coli BL21(DE3), purified (Ni-NTA, Superdex 200 SEC)"}},
  "key": {"[1]": {"test_system": "C. albicans eno1/eno1 mutant strain", "experiment": "Galleria mellonella infection model, eno1/eno1 strain", "format": "in vivo, Candida albicans", "conditions": "G. mellonella, 10 mg/kg", "experimental": "To assess whether Eno1 is a therapeutic target of BE, we constructed a homozygous deletion strain for the ENO1 gene (eno1/eno1). We then investigated the difference in the antifungal efficacy of BE on the infections caused by the parent strain SN152 and the eno1/eno1 strain in the Galleria mellonella infection model. We divided the G. mellonella into 5 groups, with 10 larvae in each group. All 10 larvae died after a 24-h infection with the SN152 strain, while only 3 larvae died after 24 h when infected with the eno1/eno1 strain; the remaining larvae died within 7 days. Compared with the group infected with the parent strain, the survival time of the group infected with the eno1/eno1 strain was longer (P < 0.01) (Fig. 4A). […] The survival rate of larvae in the BE (10 mg/kg of body weight)-treated, SN152 strain-infected group was extended by 30%, compared with that in the group infected with the SN152 strain but without antifungal drug treatment (P < 0.001) (Fig. 4B). […] All 10 larvae in the BE-treated group died within 6 days, and all 10 larvae without BE treatment were killed within 7 days (Fig. 4C). However, FLC (10 mg/kg) can extend the survival rate of larvae infected by the eno1/eno1 strain by 60% (P < 0.01) (Fig. 4D) compared with the group infected with the eno1/eno1 strain without antifungal drug treatment.\nFIG 4 Eno1 acts as a therapeutic target of BE. […] Each curve represents a group of 10 larvae (n =10) monitored daily for survival for up to 10 days after infection. […]\nVirulence testing of C. albicans was done in Galleria mellonella as described previously ([56]). […] After growth in YPD media overnight at 30°C and 200 rpm, C. albicans SN152 cells or eno1/eno1 mutant cells were washed with PBS 3 times and diluted to the desired concentration (1 × 10^7 cells/mL) determined by counting with a hemacytometer. […] The death of G. mellonella was assessed daily and analyzed statistically by the Kaplan-Meier method (log-rank test)."}, "Candida albicans 103": {"test_system": "Candida albicans 103", "experiment": "Checkerboard microdilution assay with fluconazole", "format": "cell-based", "from_the_text": "Ta b l e S3. Interaction of fluconazole ( FLC) and BE probes against isolates of Candida albicans\nCompounds Molecular structure Individual action Interaction MIC(μg/ mL ) FICI Mode of\nMIC (μg /mL) FLC Compounds interaction"}, "CaEno1": {"target": "T1, CaEno1 (Candida albicans, UniProt P30575)", "T1 sequence (P30575 1-440)": "B1 chain", "conditions": "read-out: IC50 inhibiting enolase activity; CaEno1 30 nM, 2-PG 1 mM", "protocol": "Data are shown as the means ± standard deviations. […] Data are shown as the means ± standard deviations.\nEnolase activity was determined by direct spectrophotometric assay via measuring the increase of absorbance at 240 nm of phosphoenolpyruvate (PEP) as described previously with some modifications ([54]). Briefly, the reaction buffer (pH 7.0) containing 10 mM imidazole, 200 mM KCl, and 0.5 mM MgAc in a final reaction volume of 100 μL was mixed with Eno1 (a final concentration of 30 nM), followed by the mixture of 2-phosphoglycerate (2-PG) (Yuanye Biotech Shanghai) with a final concentration of 1 mM. The enolase activity of Eno1 was evaluated by measuring the increase of absorbance (OD240) at room temperature for 10 min. […] The well-known enolase inhibitor sodium fluoride (NaF; Sangon Biotech) was initiated from 5 mM and used as a control ([29]). Inhibition curves were fitted by nonlinear regression (four parameters) using the GraphPad Prism software."}, "[2]": {"target": "the molecule itself", "experiment": "crystal structure; X-ray crystals of CaEno1 alone and of CaEno1 with 2-PG, sitting drop at 13°C, space group C2; four Eno1 chains (two dimers) in the asymmetric unit"}},
  "data": [
    {"molecule": "OC(Cn1cncn1)(Cn1cncn1)c1ccc(F)cc1F", "note": "[FLC, fluconazole]", "values": [
      {"measurement": "survival rate of larvae extended versus infected group without drug treatment", "setting": "[1]", "value": 60, "unit": "%"}
    ]},
    {"molecule": "C#CCOc1cc(C2(C(F)(F)F)N=N2)ccc1COc1cc2oc(-c3ccccc3)cc(=O)c2c(O)c1N", "note": "[BE-1]", "values": [
      {"measurement": "Interaction MIC FLC", "setting": "Candida albicans 103; MIC of FLC in combination with the compound", "value": "> 64", "unit": "µg/mL"},
      {"measurement": "Interaction MIC Compounds", "setting": "Candida albicans 103; MIC of the compound in combination with FLC", "value": 1, "unit": "µg/mL"},
      {"measurement": "FICI", "setting": "Candida albicans 103; combination with FLC", "value": 1.01},
      {"measurement": "Mode of interaction", "setting": "Candida albicans 103; combination with FLC, FLC-resistant C. albicans", "value": "Indifference"},
      {"measurement": "Individual action MIC", "setting": "Candida albicans 103; compound alone", "value": "> 64", "unit": "µg/mL"}
    ]},
    {"molecule": "[F-].[Na+]", "note": "[NaF, sodium fluoride]", "values": [
      {"measurement": "IC50", "setting": "CaEno1", "value": "504 ± 7.1", "unit": "µM"}
    ]},
    {"molecule": "B1", "values": [
      {"measurement": "stoichiometry N", "setting": "[2]", "value": 2}
    ]}
  ]
}
